Data on 9 molecules can be found in PubChem BioAssay (NCI).

Some test systems named below: NCI-H522 lung; RPMI-8226 leukemia; NCI-H23 lung; SK-MEL-2 melanoma; HOP-62 NSCLC; M14 melanoma; OVCAR-8 ovarian; HT29 colon; U251 CNS; A498 renal.
Holding throughout (test): growth of human tumour cells (NCI), 48 h

SMILES strings stand for the structures.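 Assay format: 96-well plates, 48-hour exposure. GI50 marks 50% less growth. The concentration for full growth arrest is given as TGI.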

Consider `C/C(=N\NC(N)=S)c1ccc2c(c1)OCO2`, for which the TGI in the assay on NCI-H522 lung, with RPMI-8226 leukemia, in the assay on NCI-H23 lung, in the assay with SK-MEL-2 melanoma, with HOP-62 NSCLC and in the assay with M14 melanoma was over 100 µM in each case. Moreover, the TGI in the assay with OVCAR-8 ovarian, in the assay with HT29 colon, in the assay on U251 CNS and in the assay with A498 renal was over 100 µM in each case.
Consider `CSC(=S)N(C)c1nc(=[N+](C)C)ss1`, for which the TGI in the assay with NCI-H522 lung, with RPMI-8226 leukemia, in the assay with NCI-H23 lung, in the assay on SK-MEL-2 melanoma, in the assay on HOP-62 NSCLC and in the assay on M14 melanoma was over 100 µM throughout. The TGI in the assay on OVCAR-8 ovarian, with HT29 colon, with U251 CNS and in the assay with A498 renal was over 100 µM in each case.
Take `COc1ccc(NC2=C(Sc3nc(C)cc(C)n3)C(=O)N(Cc3ccccc3)C2=O)cc1Cl`: the GI50 in the assay with NCI-H522 lung was over 160 µM; in the assay on RPMI-8226 leukemia, 8.79 µM; with NCI-H23 lung it was over 160 µM; in the assay on SK-MEL-2 melanoma, 138 µM; with HOP-62 NSCLC it was 84.6 µM; in the assay with M14 melanoma, over 160 µM. The GI50 was 99.2 µM in the assay on OVCAR-8 ovarian, 54.5 µM in the assay on HT29 colon, 55 µM in the assay with U251 CNS and 62.1 µM in the assay with A498 renal. The TGI in the assay on NCI-H522 lung, in the assay on RPMI-8226 leukemia, with NCI-H23 lung, in the assay with SK-MEL-2 melanoma, with HOP-62 NSCLC and with M14 melanoma was over 160 µM each time. For the same molecule, the TGI with OVCAR-8 ovarian, with HT29 colon, in the assay on U251 CNS and in the assay on A498 renal was over 160 µM each time.
For the molecule `COc1ccc(C2=NNC(c3ccc(-c4ccc(OC)cc4[N+](=O)[O-])o3)C2)cc1` (stereo not given), the GI50 in the assay on NCI-H522 lung was 34.9 µM; in the assay with RPMI-8226 leukemia, 36.8 µM; with NCI-H23 lung, 33 µM; with SK-MEL-2 melanoma, over 100 µM; with HOP-62 NSCLC, 30.6 µM; in the assay with M14 melanoma it was 71.3 µM. Also, the GI50 was 21.2 µM in the assay with OVCAR-8 ovarian, 44.9 µM in the assay with HT29 colon, 19.4 µM in the assay with U251 CNS and 31.6 µM in the assay with A498 renal. Further, the TGI in the assay with NCI-H522 lung, in the assay with RPMI-8226 leukemia, with NCI-H23 lung, in the assay with SK-MEL-2 melanoma, in the assay on HOP-62 NSCLC and with M14 melanoma was over 100 µM each time. Further, the TGI was 75.5 µM with OVCAR-8 ovarian, over 100 µM with HT29 colon, 50.3 µM in the assay with U251 CNS and over 100 µM in the assay on A498 renal.
As for `Clc1ccc(C2=Nc3ccccc3SC(c3ccc(Cl)c(Cl)c3)C2)c(Cl)c1` (stereo not given), the TGI amounted to 28 µM with NCI-H522 lung; 6.01 µM with RPMI-8226 leukemia; 34.2 µM in the assay with NCI-H23 lung; 31.5 µM in the assay with SK-MEL-2 melanoma; 18.2 µM in the assay with HOP-62 NSCLC; 30.1 µM in the assay with M14 melanoma. For the same molecule, the TGI in the assay on OVCAR-8 ovarian was 31.1 µM; with HT29 colon, 28.5 µM; in the assay on U251 CNS, 32 µM; in the assay on A498 renal, 37.4 µM.
As for `COc1nccc(-c2c(-c3ccc(F)cc3)ncn2C2CCC(O)CC2)n1` (stereo not given), the GI50 in the assay on NCI-H522 lung was over 60.1 µM; in the assay on RPMI-8226 leukemia, over 70.3 µM; in the assay on NCI-H23 lung, over 100 µM; in the assay on SK-MEL-2 melanoma, over 100 µM; with HOP-62 NSCLC, 99 µM; with M14 melanoma, over 100 µM. Also, the GI50 is 89.1 µM in the assay with OVCAR-8 ovarian, 42.6 µM with HT29 colon, over 86.9 µM with U251 CNS and 21.5 µM with A498 renal. Besides, the TGI with NCI-H522 lung, with RPMI-8226 leukemia, with NCI-H23 lung, with SK-MEL-2 melanoma, in the assay on HOP-62 NSCLC and in the assay on M14 melanoma was over 100 µM in each case. Moreover, the TGI with OVCAR-8 ovarian, in the assay on HT29 colon, in the assay with U251 CNS and in the assay with A498 renal was over 100 µM each time.
For the molecule `CC(=O)OCC(=O)[C@@]1(O)[C@H](C)C[C@H]2[C@@H]3C=C(C)C4=Cc5c(cnn5-c5ccc(F)cc5)C[C@]4(C)[C@H]3[C@@H](O)C[C@@]21C`, the GI50 with NCI-H522 lung is 1.84 µM; in the assay with RPMI-8226 leukemia, 0.161 µM; with NCI-H23 lung it was 2.08 µM; with SK-MEL-2 melanoma, 2.14 µM; with HOP-62 NSCLC, 1.28 µM; in the assay on M14 melanoma, 1.71 µM. The GI50 in the assay with OVCAR-8 ovarian was 2.58 µM; with HT29 colon, 1.32 µM; in the assay with U251 CNS, 1.25 µM; in the assay with A498 renal, 1.48 µM. The TGI in the assay on NCI-H522 lung turned out to be 3.82 µM; in the assay with RPMI-8226 leukemia it was 1.14 µM; in the assay with NCI-H23 lung, 5.8 µM; in the assay on SK-MEL-2 melanoma, 6.36 µM; in the assay with HOP-62 NSCLC, 3.07 µM; with M14 melanoma, 3.5 µM. The TGI in the assay with OVCAR-8 ovarian is 11.3 µM; in the assay on HT29 colon it was 3.07 µM; in the assay on U251 CNS, 3.27 µM; in the assay on A498 renal, 3.15 µM.
For `COc1ccc2c(c1)[nH]c(=O)c1c3cccnc3cn21`, the GI50 with NCI-H522 lung was 0.0222 µM; in the assay with RPMI-8226 leukemia, 0.0596 µM; in the assay with NCI-H23 lung it was 0.131 µM; in the assay with SK-MEL-2 melanoma it was 0.037 µM; in the assay with HOP-62 NSCLC it was 0.0666 µM; with M14 melanoma, 0.0265 µM. Besides, the GI50 in the assay on OVCAR-8 ovarian was 0.0514 µM; in the assay with HT29 colon, 0.03 µM; in the assay on U251 CNS, 0.041 µM; in the assay with A498 renal, 0.0335 µM. The TGI in the assay with NCI-H522 lung was found to be 0.0682 µM; in the assay with RPMI-8226 leukemia, 32.4 µM; in the assay on NCI-H23 lung, 35.3 µM; in the assay with SK-MEL-2 melanoma, 11.3 µM; in the assay on HOP-62 NSCLC it was 37 µM; in the assay with M14 melanoma, 19.9 µM. Also, the TGI came out at 21.2 µM in the assay with OVCAR-8 ovarian, 0.168 µM with HT29 colon, 12.2 µM with U251 CNS and 4.53 µM in the assay on A498 renal.
As for `CCOC(=O)C1CCC/C1=N\N=C(N)N` (stereo not given) (tested in a mixture with another compound), the TGI in the assay on NCI-H522 lung, in the assay with RPMI-8226 leukemia, in the assay on NCI-H23 lung, with SK-MEL-2 melanoma, in the assay with HOP-62 NSCLC and in the assay on M14 melanoma was over 100 µM each time. Besides, the TGI in the assay with OVCAR-8 ovarian, in the assay on HT29 colon, with U251 CNS and in the assay on A498 renal was over 100 µM each time.
